In patent publication US20040229241A1, “Cloned mammalian polyamine oxidase” (priority 2001, published 2004):
One block for each compound: values may come before it.

Columns and labels:
PAO message = assay: Northern blot of PAO mRNA in NCI H157 cells after analogue treatment; assay type: cell-based, human; details: 10 μM, 24 h
Description: RNA Purification and Northern Blot Assay. Total cellular RNA from the NCI H157 cell line was extracted using Trizol total RNA reagent according to the protocol from the manufacturer. Total RNA (20 μg) was separated on a denaturing 1.5% agarose gel containing 6% formaldehyde, transferred to Zetaprobe membrane (Bio-Rad), and hybridized with a random primer-labeled pPAOh1 cDNA as the probe. Blots were washed and reprobed with an 18S ribosomal cDNA probe as a loading control.

[1] = molecular target: T1, purified recombinant human PAOh1/SMO (Homo sapiens, UniProt Q9NWM0); assay: Oxidase activity of purified recombinant PAOh1/SMO, luminol chemiluminescence; assay type: biochemical
T1 construct: A 1702 bp fragment of the PAOh1cDNA was produced by PCR; His tag (pET15b) (N); made in house; host or cells: Escherichia coli BL21(DE3)
T1 sequence (Q9NWM0 whole entry, the tested form may be a part): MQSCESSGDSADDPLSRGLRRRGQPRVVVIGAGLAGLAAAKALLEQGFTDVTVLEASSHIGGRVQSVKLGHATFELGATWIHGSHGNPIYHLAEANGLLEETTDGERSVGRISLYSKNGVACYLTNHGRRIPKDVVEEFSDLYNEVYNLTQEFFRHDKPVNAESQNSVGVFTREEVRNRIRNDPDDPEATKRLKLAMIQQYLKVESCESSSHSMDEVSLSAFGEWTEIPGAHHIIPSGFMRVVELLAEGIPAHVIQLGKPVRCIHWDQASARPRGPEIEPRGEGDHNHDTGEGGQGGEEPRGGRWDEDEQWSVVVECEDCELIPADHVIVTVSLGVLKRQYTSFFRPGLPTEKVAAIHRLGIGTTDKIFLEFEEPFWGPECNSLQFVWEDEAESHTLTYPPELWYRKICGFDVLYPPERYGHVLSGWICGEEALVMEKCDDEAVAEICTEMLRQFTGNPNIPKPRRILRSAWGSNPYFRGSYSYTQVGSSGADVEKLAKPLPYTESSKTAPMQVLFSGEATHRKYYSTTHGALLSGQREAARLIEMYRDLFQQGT
Description: Expression and Purification of PAOh1/SMO. The pET15b/PAOh1/SMO plasmid was used to transform the BL21(DE3) strain of Escherichia coli (Novagen) and transformed cells were selected on LB agar with 50 μg/ml ampicillin. The expression of PAOh1/SMO protein was induced in LB medium by the addition of 1 mM IPTG for 3 h at 37 ° C. Cell lysates were prepared under denaturing conditions with 8M urea and PAOh1/SMO protein was purified from the lysate by Ni-NTA resin according to the manufacturer's protocol (Qiagen, Valencia, Calif.). The resulting denatured protein was renatured in buffers containing decreasing concentrations of urea (5M urea, 4 h; 2.5M urea, 4 h; 1M urea, 12 h; and 0M urea, 12 h) and 50 mM Tris-HCl, pH 7.5, 250 mM NaCl, 0.1 mM EDTA, 1 mM DTT, and 0.2 μM flavin adenine dinucleotide (FAD).
Determination of PAO enzyme activity. PAO activity of the purified PAOh1/SMO was assayed using a modi.cation of the chemiluminesence analysis reported by Fernandez et al. and Rogers, et al.. Briefly, luminol-dependent chemiluminescence was determined using a Monolight 3010 luminometer with two reagent injectors. Luminol was prepared as a 100 mM stock solution in DMSO and diluted to 100 μM with H2O, immediately prior to use. Purified PAOh1/SMO was assayed in a 100 mM glycine buffer, pH 8.0, 5 ηmol luminol, 20 μg horseradish peroxidase, and the polyamine substrate as indicated. All reagents with the exception of the polyamine substrate were combined and incubated for 2 min at 37 ° C., then the tube was transferred to the luminometer, substrate was added, and the resulting chemiluminescence was integrated over 20 s. The integral values are calibrated against standards containing known concentrations of H2O2 and the activities are expressed as pmols H2O2/mg protein/min. Where indicated, inhibitors were added at the specified concentrations prior to the addition of substrate. Km and Vmax values for the purified enzyme with the indicated substrate were estimated using Lineweaver-Burk transformation of the Michaelis-Menten kinetic equation.

PAOh1/SMO [2] = assay: PAOh1/SMO activity and mRNA in small-cell lung cancer lines NCI H82 and NCI H889 after BENSpm; assay type: cell-based, human; details: two small-cell lung cancer lines, 10 μM, 24 h
Description: Cell Culture and Analysis of Growth Inhibition of Human Lung Cancer Cell Lines The non-small-cell cancer lines NCI A549 (adenocarcinoma), NCI H157 (squamous), NCI H727 (carcinoid), NCI H125 (adenocarcinoma) and U1752 (squamous), and the small-cell lung carcinoma lines NCI H82 and NCI H889 were cultured as we have previously described. Cells were treated for the times and with the concentrations of specific agents as indicated in the Results. For cell growth analysis in the presence of the PAOh1/SMO inhibitor MDL 72,527, the MTS dye reduction assay CellTiter 96 system from Promega was used according to the supplier's protocol. […]
Total cellular RNA was extracted from the lung cancer cell lines using Trizol reagent (Invitrogen) according to the manufacturer's protocol. […] Intracellular polyamine concentrations were determined using the precolumn dansylation labeling, reverse-phase high-pressure liquid chromatography method as described by Kabra et al. using 1,7-diaminoheptane as an internal standard. Polyamine concentrations are reported as nanomoles per milligram protein for each sample, where lysate protein content was measured by the method of Bradford. SSAT activity of cellular extracts was measured as previously described. […]

NCI A549 cells [3] = assay: Intracellular polyamine and analogue content of NCI A549 cells (HPLC); assay type: cell-based, human; details: NCI A549, 10 μM, 24 h
Description: (§1) Total cellular RNA was extracted from the lung cancer cell lines using Trizol reagent (Invitrogen) according to the manufacturer's protocol. For Northern blotting, total RNA (20 lg) was separated on a denaturing 1.5% agarose gel containing 6% formaldehyde and transferred to Zetaprobe membrane (Bio-Rad). Random primer- labeled PAOh1 cDNA was used as probe to estimate PAOh1/SMO expression. Blots were stripped and reprobed with an 18S ribosomal cDNA to provide a loading control. Analysis of polyamine content, SSAT and PAOh1/SMO activity. Intracellular polyamine concentrations were determined using the precolumn dansylation labeling, reverse-phase high-pressure liquid chromatography method as described by Kabra et al. using 1,7-diaminoheptane as an internal standard. Polyamine concentrations are reported as nanomoles per milligram protein for each sample, where lysate protein content was measured by the method of Bradford. SSAT activity of cellular extracts was measured as previously described. […] The PAOh1/SMO assays were performed in the presence of 1.0 mM pargyline and 0.1 mM semicarbizide as inhibitors of monoamine oxidase (MAO) and diamine oxidase (DAO), respectively.

PAOh1/SMO [4] = assay: PAOh1/SMO activity in lysates of NCI A549 cells after analogue treatment; assay type: cell-based, human
Description: (§2) Cell Culture and Analysis of Growth Inhibition of Human Lung Cancer Cell Lines The non-small-cell cancer lines NCI A549 (adenocarcinoma), NCI H157 (squamous), NCI H727 (carcinoid), NCI H125 (adenocarcinoma) and U1752 (squamous), and the small-cell lung carcinoma lines NCI H82 and NCI H889 were cultured as we have previously described. Cells were treated for the times and with the concentrations of specific agents as indicated in the Results. For cell growth analysis in the presence of the PAOh1/SMO inhibitor MDL 72,527, the MTS dye reduction assay CellTiter 96 system from Promega was used according to the supplier's protocol. In these experiments, NCI A549 cells were seeded at 5×10^3 cells/well in a 96-well microtiter plate and treated for 96 h with 10 μM of the indicated analogue in the presence or absence of 250 μM MDL 72,527.
as §1

SSAT = SSAT activity of NCI A549 cellular extracts; assay type: cell-based, human; details: NCI A549, 10 μM, 24 h; untreated 5 ± 0.1
Description: as §1

NCI A549 cells [5] = assay: MTS cell growth analysis of NCI A549 cells with or without MDL 72,527; assay type: cell-based, human
Description: as §2

PAO = PAO activity in homogenates of NCI H157 cells after analogue treatment; assay type: cell-based, human; details: 10 μM, 24 h
Description: Determination of PAO Enzyme Activity. The cultured H157 cells with or without treatment of 10 μM N^1, N″-bis(ethyl)norspermine (BENSpm) were homogenized with a Dounce tissue homogenizer in ice-cold 0.083 M sodium borate buffer (pH 9.0). The PAO activity in homogenates was assayed by the method of Suzuki et al. […] The enzyme activity was stopped by the addition of 2.0 ml of 0.1 M NaOH solution. The fluorescence intensity was measured with excitation at 323 nm and emission at 426 nm. […] Protein content of the cellular homogenate was determined using the Bio-Rad protein assay kit (Bio-Rad). […] For determination of PAO activity in the product of the unlabeled TnT reaction, 10 μl of TnT reaction were used in the place of the homogenate. The PAO activity in the TnT reactions was represented by the fluorescent compound formed within the 1-h incubation. […] The concentrations chosen for each inhibitor were based on studies published previously (12).

human PAOh1 = molecular target: T2, human PAOh1 (Homo sapiens, UniProt Q9NWM0); assay: PAO activity of in vitro TnT (wheat germ) produced PAOh1, fluorescent H2O2 assay; assay type: biochemical; details: 0.25 mM inhibitor, 250 μM spermine as substrate
T2 construct: made in house; host or cells: TnT-coupled wheat germ extract (Promega), template pPAOh1 (pcDNA3.1)
T2 sequence (Q9NWM0 whole entry): as the sequence (Q9NWM0 whole entry, the tested form may be a part) above
Description: In Vitro Transcription and Translation. In vitro transcription and translation reactions were performed with the TnT-coupled wheat germ extract system. Parallel reactions were prepared by adding an unlabeled amino acid mixture to one reaction and a [^35S]methionine containing amino acid mixture to the other, according to the supplied protocol. Vector pcDNA3.1 and pPAOh1 were linearized by SalI restriction and served as the templates. The labeled translation reactions products were separated by 10% SDS-PAGE, and radioactivity on the labeled PAO band was determined by Phosphor image analysis using Image Quant software (Molecular Dynamics, Sunnyvale, Calif.).
Determination of PAO Enzyme Activity. The cultured H157 cells with or without treatment of 10 μM N^1, N″-bis(ethyl)norspermine (BENSpm) were homogenized with a Dounce tissue homogenizer in ice-cold 0.083 M sodium borate buffer (pH 9.0). […] The enzyme activity was stopped by the addition of 2.0 ml of 0.1 M NaOH solution. The fluorescence intensity was measured with excitation at 323 nm and emission at 426 nm. […] Protein content of the cellular homogenate was determined using the Bio-Rad protein assay kit (Bio-Rad). […] For determination of PAO activity in the product of the unlabeled TnT reaction, 10 μl of TnT reaction were used in the place of the homogenate. […]

fold induction of PAOh1/SMO activity (PAOh1/SMO [4]; NCI A549, 10 μM, 24 h, 250 μM spermine as substrate): about fivefold
SMILES: CCNCCCNCCCNCCCNCC [BENSpm, N^1,N^11-bis(ethyl)norspermine]
increase in PAO message (PAO message): ~5 fold
ability to serve as substrate (oxidation by purified PAOh1/SMO) ([1]; 250 μM of compound): none of the analogues examined were found to be oxidized
increase in PAOh1/SMO activity (PAOh1/SMO [2]): no observed increase
increase in PAOh1/SMO mRNA (PAOh1/SMO [2]): no observed increase
Polyamine: Putrescine (NCI A549 cells [3]; untreated 2.1 ± 0.7): <0.05 nmol/mg protein
Polyamine: Spermine (NCI A549 cells [3]; untreated 9.9 ± 1.2): 1.2 ± 0.3 nmol/mg protein
Polyamine: Spermidine (NCI A549 cells [3]; untreated 26.9 ± 1.2): 1.2 ± 0.8 nmol/mg protein
fold increase of PAOh1/SMO activity (PAOh1/SMO [4]; NCI A549, 10 μM, 12 h): approximately threefold
PAOh1/SMO activity (PAOh1/SMO [4]; NCI A549, 10 μM, 24 h, untreated 6,390 ± 2,070): 16,100 ± 780 pmol H2O2/mg/h
induction of PAOh1/SMO activity (PAOh1/SMO [4]; NCI A549, 24 h exposure to 10 μM of each analogue): significant induction
concentration of maximal induction of PAOh1/SMO (PAOh1/SMO [4]; NCI A549, increasing concentrations, 24 h): 5 µM
SSAT activity (SSAT): 5590 ± 517.7 pmol N^1-acetylspermidine/mg p
sensitivity of cell growth to analogue in the presence of the PAOh1/SMO inhibitor (NCI A549 cells [5]; NCI A549, 96 h, 10 μM analogue with 250 μM MDL 72,527): clear decrease in sensitivity
increase in PAO activity (PAO): > 3 fold

IC50 [1]: ~10 µM
inhibition at 250 µM ([1]; read-out: inhibition of oxidation of spermine): > 95%
inhibition of the human PAOh1 protein product (human PAOh1): effective in inhibiting
SMILES: C=C=CCNCCCCNCC=C=C [MDL 72,527, N^1,N^4-bis(2,3-butadienyl)-1,4-butanediamine]
basal oxidase activity in the presence of inhibitor (PAOh1/SMO [4]; NCI A549 basal activity (4184 without inhibitor), 250 μM MDL 72,527): 4055 pmol/mg per hour
effect on the basal levels of oxidase activity (PAOh1/SMO [4]; NCI A549 lysate, 250 μM MDL 72,527): did not significantly reduce
inhibition of the PAOh1/SMO activity induced by the analogues (PAOh1/SMO [4]; NCI A549 lysate, 250 μM MDL 72,527 in the assay): significantly inhibited
part of the basal level of oxidase activity that is inhibited (PAOh1/SMO [4]; basal (untreated) lung cancer cell lysate): less than 10%
effect of the inhibitor alone on growth (NCI A549 cells [5]; NCI A549, 250 μM MDL 72,527): did not adversely affect the growth
